# Data: US8354423B2, “Insecticidal spironindane derivatives” (priority 2003, dated 2013)
structure (smiles),measurement,value
O=C(N/N=C1\CC2(CCN(C/C=C/c3ccc(Cl)cc3)CC2)c2ccccc21)Nc1ccc(OC(F)(F)F)cc1,melting point,225 °C
